Patent US12559718B2, “Diagnostic methods for t cell therapy” (Kite Pharma, Inc., priority 2015, dated 2026)

Assay: Phase 1/2 trial of anti-CD19 CAR+ T cells: adverse events and dose-limiting toxicity
Assay type: in vivo, human
Conditions: 1 subject, onset at day 110 post anti-CD19 CAR+ T cell infusion
Procedure: Subjects who signed informed consent and met study eligibility were enrolled into the study and underwent leukapheresis to obtain PBMCs for the production of anti-CD19 CAR+ T cells. […] Some subjects were then treated with interleukin-2 (Group 1 only), 3 hours after the anti-CD19 CAR+ T cell infusion. Retreatment of a second dose of anti-CD19 CAR+ T cells was allowed if there was a response of partial response (PR) or complete response (CR) after the first infusion and then subsequent disease progression.
Three groups of subjects were enrolled. […] These subjects also received high dose interleukin-2 (IL-2) at 720,000 IU/kg (every 8 hours until 15 doses or toxicity precluded additional doses) after the anti-CD19 CAR+ T cell administration to stimulate their proliferation.
Group 3 includes 11 subjects, who have received a reduced conditioning regimen of cyclophosphamide at 300 mg/m^2 and fludarabine at 30 mg/m^2, both given for 3 concurrent days with no IL-2.
Overall safety summaries include all 32 treated subjects.

Nc1nc(F)nc2c1ncn2[C@@H]1O[C@H](CO)[C@@H](O)[C@@H]1O [fludarabine]
Neurologic adverse event considered by the investigator related to fludarabine: grade 4 myelitis
